What all share (assay): KINOMEscan
Type in all cases: binding
What all share (conditions): read-out: % control activity remaining

The target of test [1] is T1, SIK2 (Homo sapiens, UniProt Q9H0K1).
T1 construct: purchased Eurofins DiscoverX KINOMEscan

In test [2] the target is T2, RET(V804M) (Homo sapiens, UniProt P07949, V804M).
T2 construct: purchased Eurofins DiscoverX KINOMEscan

The target in test [3] is T3, MAP3K1 (Homo sapiens, UniProt Q13233).
T3 construct: purchased Eurofins DiscoverX KINOMEscan

In test [4] the target is T4, TYRO3 (Homo sapiens, UniProt Q06418).
T4 construct: purchased Eurofins DiscoverX KINOMEscan
T4 sequence (Q06418 41-890): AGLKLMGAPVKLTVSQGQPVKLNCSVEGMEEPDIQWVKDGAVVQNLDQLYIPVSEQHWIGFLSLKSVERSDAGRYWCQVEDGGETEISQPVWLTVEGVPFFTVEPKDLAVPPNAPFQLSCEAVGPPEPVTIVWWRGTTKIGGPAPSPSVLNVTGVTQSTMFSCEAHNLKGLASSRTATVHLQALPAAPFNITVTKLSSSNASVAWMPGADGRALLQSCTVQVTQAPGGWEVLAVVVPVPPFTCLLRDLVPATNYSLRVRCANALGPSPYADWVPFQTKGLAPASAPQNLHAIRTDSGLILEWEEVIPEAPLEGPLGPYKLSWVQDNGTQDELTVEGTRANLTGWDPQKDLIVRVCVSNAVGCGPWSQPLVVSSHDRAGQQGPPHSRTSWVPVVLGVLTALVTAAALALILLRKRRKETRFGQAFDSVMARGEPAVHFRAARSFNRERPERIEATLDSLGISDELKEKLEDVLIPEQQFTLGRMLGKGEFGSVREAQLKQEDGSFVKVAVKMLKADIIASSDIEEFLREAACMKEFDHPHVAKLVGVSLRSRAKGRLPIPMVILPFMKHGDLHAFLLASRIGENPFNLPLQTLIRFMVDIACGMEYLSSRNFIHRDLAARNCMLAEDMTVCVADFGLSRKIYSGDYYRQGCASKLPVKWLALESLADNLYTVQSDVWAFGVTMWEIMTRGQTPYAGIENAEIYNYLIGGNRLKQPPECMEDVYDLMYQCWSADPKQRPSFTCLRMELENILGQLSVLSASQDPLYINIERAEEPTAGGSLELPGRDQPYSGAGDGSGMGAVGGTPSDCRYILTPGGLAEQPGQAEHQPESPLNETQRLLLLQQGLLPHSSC

In test [5] the target is T5, ANKK1 (Homo sapiens, UniProt Q8NFD2).
T5 construct: purchased Eurofins DiscoverX KINOMEscan
T5 sequence (Q8NFD2 1-765): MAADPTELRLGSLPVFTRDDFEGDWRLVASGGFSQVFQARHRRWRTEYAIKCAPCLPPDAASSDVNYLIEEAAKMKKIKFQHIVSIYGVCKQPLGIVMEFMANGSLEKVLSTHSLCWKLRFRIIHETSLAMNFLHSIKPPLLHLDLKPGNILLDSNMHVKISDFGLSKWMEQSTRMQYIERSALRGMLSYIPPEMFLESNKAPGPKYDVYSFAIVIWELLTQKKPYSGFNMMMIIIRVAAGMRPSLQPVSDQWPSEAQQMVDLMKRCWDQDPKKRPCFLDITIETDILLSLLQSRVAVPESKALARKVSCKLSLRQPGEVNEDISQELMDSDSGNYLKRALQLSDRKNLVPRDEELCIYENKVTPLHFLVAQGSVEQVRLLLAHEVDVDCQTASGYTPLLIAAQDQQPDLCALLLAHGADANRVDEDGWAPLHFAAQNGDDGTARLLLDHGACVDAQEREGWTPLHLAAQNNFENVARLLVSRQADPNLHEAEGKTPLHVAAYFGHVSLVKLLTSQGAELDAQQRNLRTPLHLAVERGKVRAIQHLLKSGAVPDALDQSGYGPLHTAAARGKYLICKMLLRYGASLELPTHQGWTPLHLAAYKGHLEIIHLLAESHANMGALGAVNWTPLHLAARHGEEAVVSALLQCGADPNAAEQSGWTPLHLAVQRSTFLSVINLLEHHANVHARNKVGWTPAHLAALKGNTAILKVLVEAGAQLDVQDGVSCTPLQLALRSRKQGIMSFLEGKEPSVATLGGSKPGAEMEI

For test [6], the target named is T6, LCK (Homo sapiens, UniProt P06239).
T6 construct: purchased Eurofins DiscoverX KINOMEscan

The target in test [7] is T7, MET(M1250T) (Homo sapiens, UniProt P08581, M1250T).
T7 construct: purchased Eurofins DiscoverX KINOMEscan

Test [8] has as its target T8, MAP4K3 (Homo sapiens, UniProt Q8IVH8).
T8 construct: purchased Eurofins DiscoverX KINOMEscan
T8 sequence (Q8IVH8 1-894): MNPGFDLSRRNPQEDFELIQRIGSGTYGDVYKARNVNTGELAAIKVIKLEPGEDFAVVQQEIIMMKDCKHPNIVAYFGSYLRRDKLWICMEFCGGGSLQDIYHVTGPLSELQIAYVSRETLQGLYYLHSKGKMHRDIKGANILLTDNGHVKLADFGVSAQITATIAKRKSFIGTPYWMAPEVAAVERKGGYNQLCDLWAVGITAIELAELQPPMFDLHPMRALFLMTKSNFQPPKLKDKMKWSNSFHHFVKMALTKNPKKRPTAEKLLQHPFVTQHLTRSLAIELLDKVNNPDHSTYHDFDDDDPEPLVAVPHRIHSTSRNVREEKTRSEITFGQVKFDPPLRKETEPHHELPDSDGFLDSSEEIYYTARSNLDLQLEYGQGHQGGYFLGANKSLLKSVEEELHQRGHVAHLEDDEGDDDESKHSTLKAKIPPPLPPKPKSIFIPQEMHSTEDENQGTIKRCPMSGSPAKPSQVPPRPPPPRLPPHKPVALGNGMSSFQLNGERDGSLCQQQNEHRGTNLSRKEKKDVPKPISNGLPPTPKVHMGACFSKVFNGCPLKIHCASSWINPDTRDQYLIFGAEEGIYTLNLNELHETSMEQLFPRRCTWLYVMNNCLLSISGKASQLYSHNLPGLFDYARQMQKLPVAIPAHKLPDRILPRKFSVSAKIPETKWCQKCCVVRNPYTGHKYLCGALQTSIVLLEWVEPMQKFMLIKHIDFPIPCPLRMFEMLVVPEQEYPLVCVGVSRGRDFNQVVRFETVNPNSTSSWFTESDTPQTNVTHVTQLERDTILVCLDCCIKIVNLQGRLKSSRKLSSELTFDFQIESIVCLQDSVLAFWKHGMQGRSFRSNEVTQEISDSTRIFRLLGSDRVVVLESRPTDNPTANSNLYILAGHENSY

The target in test [9] is T9, S6K1 (Homo sapiens, UniProt P23443).
T9 construct: purchased Eurofins DiscoverX KINOMEscan

For three compounds, remaining binding results are on record in article PMC6437697 (Journal of Medicinal Chemistry, 2019).

T7 sequence (P08581 25-1390 M1250T): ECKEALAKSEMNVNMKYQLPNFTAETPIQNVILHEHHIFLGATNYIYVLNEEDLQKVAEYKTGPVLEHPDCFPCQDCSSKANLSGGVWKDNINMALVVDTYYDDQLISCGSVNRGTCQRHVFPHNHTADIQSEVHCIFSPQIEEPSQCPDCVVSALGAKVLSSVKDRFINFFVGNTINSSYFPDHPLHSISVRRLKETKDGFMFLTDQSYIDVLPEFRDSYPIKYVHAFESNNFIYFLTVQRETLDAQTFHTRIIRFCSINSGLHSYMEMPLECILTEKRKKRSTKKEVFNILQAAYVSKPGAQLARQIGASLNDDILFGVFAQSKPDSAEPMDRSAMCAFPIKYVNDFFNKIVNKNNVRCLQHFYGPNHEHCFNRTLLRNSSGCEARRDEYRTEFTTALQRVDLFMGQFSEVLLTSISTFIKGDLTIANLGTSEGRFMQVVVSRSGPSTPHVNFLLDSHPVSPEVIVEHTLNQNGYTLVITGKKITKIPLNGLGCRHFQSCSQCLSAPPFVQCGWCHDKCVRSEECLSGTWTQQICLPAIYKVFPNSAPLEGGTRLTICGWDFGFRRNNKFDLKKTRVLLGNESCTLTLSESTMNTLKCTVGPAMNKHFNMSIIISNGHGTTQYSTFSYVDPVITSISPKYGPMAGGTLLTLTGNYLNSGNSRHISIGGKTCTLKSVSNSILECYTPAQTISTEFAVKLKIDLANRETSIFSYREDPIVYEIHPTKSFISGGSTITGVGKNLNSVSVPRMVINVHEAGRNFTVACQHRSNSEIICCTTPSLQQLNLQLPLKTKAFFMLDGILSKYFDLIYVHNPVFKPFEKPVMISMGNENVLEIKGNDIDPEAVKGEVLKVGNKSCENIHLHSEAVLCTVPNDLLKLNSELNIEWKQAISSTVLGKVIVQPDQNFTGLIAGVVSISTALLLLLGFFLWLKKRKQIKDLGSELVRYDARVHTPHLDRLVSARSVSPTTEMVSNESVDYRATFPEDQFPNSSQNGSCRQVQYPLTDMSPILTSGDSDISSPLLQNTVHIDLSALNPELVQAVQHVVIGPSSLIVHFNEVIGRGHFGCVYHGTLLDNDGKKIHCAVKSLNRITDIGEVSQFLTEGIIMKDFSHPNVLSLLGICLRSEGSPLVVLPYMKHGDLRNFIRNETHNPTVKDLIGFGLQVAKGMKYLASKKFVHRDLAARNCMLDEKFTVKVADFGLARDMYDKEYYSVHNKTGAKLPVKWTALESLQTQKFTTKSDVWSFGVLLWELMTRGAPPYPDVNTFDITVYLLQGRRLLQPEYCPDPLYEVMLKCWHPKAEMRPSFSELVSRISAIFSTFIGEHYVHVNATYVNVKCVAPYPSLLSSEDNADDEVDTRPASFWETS
T1 sequence (Q9H0K1 whole entry): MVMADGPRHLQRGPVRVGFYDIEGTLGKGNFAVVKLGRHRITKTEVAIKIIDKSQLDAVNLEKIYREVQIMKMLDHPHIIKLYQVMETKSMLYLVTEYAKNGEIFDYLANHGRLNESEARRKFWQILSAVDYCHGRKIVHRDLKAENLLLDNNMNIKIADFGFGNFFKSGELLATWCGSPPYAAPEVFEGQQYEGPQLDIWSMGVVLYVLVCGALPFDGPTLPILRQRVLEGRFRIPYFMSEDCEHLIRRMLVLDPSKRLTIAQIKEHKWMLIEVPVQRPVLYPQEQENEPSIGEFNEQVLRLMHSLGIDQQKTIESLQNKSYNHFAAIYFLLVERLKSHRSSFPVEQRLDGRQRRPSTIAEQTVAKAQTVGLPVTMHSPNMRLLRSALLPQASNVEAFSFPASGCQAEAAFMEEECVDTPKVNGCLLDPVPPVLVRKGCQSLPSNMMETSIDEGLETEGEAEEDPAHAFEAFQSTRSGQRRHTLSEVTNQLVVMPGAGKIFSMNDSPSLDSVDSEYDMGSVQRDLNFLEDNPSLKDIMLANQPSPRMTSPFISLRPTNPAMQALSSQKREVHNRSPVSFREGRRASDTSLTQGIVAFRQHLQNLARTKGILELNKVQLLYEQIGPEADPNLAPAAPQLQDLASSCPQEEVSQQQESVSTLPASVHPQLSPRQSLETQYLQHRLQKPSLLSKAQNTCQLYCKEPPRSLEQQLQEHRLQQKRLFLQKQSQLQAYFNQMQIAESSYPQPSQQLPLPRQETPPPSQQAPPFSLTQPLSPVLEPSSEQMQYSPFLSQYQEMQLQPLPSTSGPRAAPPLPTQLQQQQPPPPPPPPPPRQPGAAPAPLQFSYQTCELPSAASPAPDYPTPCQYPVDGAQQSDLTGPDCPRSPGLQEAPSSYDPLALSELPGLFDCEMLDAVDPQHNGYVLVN
T6 sequence (P06239 whole entry): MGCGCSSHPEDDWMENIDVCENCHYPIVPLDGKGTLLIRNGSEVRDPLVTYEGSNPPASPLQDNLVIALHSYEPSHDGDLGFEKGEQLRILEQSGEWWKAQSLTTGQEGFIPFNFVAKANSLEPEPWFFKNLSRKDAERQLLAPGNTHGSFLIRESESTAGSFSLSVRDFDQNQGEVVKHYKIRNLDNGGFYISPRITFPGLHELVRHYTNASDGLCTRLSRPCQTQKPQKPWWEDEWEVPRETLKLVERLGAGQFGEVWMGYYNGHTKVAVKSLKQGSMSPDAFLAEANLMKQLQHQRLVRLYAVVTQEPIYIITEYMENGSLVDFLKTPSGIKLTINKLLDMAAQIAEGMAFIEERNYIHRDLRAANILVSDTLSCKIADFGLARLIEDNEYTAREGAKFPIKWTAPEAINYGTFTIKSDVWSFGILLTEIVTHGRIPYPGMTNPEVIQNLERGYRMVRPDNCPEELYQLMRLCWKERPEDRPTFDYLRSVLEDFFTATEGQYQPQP
T3 sequence (Q13233 whole entry): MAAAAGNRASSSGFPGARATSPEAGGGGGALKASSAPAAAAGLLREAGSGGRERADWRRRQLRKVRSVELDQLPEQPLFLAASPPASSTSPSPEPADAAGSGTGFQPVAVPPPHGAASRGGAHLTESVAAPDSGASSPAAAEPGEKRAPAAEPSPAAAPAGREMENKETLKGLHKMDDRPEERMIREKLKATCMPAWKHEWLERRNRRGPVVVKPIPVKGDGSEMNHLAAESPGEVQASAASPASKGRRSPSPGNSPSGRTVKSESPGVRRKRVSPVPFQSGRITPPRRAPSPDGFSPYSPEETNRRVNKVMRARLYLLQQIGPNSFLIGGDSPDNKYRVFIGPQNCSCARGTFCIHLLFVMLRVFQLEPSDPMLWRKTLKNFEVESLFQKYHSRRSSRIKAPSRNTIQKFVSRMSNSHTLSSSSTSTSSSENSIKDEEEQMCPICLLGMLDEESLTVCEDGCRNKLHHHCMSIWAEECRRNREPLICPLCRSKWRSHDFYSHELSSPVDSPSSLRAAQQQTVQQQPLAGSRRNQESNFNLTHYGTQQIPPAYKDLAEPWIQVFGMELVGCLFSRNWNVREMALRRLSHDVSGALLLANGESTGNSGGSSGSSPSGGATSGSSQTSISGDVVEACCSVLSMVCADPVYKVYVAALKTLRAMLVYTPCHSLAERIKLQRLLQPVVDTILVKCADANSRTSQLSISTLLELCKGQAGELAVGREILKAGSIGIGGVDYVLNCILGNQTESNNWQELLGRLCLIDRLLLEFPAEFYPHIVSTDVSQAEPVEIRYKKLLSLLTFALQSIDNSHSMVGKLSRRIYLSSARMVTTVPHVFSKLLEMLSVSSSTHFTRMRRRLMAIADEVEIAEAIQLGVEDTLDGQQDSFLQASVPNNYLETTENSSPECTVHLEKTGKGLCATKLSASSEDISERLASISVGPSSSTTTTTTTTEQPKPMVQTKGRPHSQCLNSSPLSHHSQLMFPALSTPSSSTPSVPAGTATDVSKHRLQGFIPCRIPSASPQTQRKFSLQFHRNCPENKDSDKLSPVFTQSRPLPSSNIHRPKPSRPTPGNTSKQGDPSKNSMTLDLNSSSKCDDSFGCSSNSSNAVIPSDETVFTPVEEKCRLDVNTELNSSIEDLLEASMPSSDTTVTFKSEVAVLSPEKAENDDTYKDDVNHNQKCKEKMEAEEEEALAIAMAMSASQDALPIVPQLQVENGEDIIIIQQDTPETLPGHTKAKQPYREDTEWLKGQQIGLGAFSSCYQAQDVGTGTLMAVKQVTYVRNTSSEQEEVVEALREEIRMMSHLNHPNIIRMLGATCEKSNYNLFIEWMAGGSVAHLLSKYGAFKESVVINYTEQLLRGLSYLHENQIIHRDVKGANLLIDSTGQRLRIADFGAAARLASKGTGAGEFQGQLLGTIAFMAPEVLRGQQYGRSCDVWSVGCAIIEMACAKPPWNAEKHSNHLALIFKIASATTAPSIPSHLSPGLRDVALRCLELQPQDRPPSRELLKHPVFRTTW
T9 sequence (P23443 whole entry): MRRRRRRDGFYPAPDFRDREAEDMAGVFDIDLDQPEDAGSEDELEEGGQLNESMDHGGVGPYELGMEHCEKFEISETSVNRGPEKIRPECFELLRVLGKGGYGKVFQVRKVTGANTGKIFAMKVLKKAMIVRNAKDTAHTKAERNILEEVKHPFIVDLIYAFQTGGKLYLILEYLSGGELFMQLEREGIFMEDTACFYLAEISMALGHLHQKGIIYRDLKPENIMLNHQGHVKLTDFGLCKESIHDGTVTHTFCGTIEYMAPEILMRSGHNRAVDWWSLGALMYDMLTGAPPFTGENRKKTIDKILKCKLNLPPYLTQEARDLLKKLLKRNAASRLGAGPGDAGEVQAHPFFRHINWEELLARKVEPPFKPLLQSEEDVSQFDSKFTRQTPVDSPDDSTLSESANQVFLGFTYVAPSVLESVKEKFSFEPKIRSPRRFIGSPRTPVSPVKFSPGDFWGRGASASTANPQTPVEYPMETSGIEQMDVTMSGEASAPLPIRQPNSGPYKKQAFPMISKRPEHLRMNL

Take `Clc1cc(NCC2CC2)c2ncc(-c3ccc4[nH]ncc4c3)n2n1` [compound 2, 6-Chloro-N-(cyclopropylmethyl)-3-(1H-indazol-5-yl)imidazo[1,2-b]pyridazin-8-amine]: the remaining binding at 1 µM in test [1] came out at 73%; in test [2] it was 97%; in test [3], 99%; in test [4] it was 69%; in test [5], 75%; in test [6] it was 100%. Besides, the remaining binding at 1 µM in test [7] stood at 89%; in test [8] it was 71%; in [9] it was 90%.
Take `O=C(CN1CCOCC1)N[C@H]1CC[C@H](Nc2cc(Cl)nn3c(-c4ccc5[nH]ncc5c4)cnc23)CC1` [compound 26]: the remaining binding at 1 µM in test [1] was found to be 97%; in [2], 82%; in [3], 92%; in test [4] it was 86%; in test [5], 48%; in [6], 87%. Further, the remaining binding at 1 µM in test [7] was determined as 82%; in test [8] it was 92%; in [9] it was 88%.
For `CN1CCC(CNc2cc(Cl)nn3c(-c4cc5nc(Nc6ccccc6)[nH]c5cc4F)cnc23)CC1` [compound 31, 6-Chloro-3-(6-fluoro-2-(phenylamino)-1H-benzo[d]imidazol-5-yl)-N-((1-methylpiperidin-4-yl)methyl)imidazo[1,2-b]pyridazin-8-amine], the remaining binding at 1 µM in test [1] came out at 100%; in test [2], 100%; in [3] it was 89%; in test [4] it was 99%; in [5] it was 100%; in test [6], 82%. For the same compound, the remaining binding at 1 µM in test [7] was determined as 98%; in test [8], 99%; in test [9], 95%.
